Measurements: publication PMC11050532, “The Inhibition Activity of Natural Methoxyflavonoid from Inula britannica on Soluble Epoxide Hydrolase and NO Production in RAW264.7 Cells” (International Journal of Molecular Sciences, 2024)

Assays:
sEH [1] = conditions: cited from earlier work; for inhibition mode: sEH
[2] = test system: mice with angiotensin-II-induced hypertension; parameters: method as in PMID 15699457; conditions: cited from earlier work
[3] = parameters: method as in PMID 23020295; conditions: cited from earlier work
sEH [4] = molecular target: T1, sEH (Homo sapiens, UniProt P34913); test: sEH activity assay (PHOME fluorescence); assay type: biochemical; conditions: triplicate, six concentrations
T1 construct: purchased Cayman Chemical 10011669
T1 sequence (P34913 1-555): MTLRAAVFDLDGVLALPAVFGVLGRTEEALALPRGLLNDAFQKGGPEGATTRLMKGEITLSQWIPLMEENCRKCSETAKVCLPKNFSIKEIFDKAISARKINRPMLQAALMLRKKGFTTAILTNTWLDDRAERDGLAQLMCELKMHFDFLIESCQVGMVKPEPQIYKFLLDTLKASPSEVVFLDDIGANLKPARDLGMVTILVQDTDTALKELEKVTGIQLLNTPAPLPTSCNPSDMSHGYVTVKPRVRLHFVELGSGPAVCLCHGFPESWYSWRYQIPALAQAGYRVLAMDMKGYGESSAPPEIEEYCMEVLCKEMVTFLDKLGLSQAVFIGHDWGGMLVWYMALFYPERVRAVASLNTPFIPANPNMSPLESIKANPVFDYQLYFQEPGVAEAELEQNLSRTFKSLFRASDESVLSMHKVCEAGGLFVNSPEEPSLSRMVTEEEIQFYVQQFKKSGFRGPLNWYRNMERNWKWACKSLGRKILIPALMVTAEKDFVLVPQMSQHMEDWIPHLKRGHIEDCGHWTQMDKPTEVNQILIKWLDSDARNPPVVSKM
Procedure: ^1H (400 MHz) and ^13C (100 MHz) nuclear magnetic resonance (NMR) spectra were obtained using a Bruker DRX-400 spectrometer (Bruker, Billerica, MA, USA) with tetramethylsilane as the internal standard. Thin-layer chromatography (TLC) was performed on pre-coated silica gel 60 F254 (0.25 mm; Merck, Rahway, NJ, USA) and reversed-phase-18 F254s plates (0.25 mm; Merck). Column chromatography was performed using a silica gel (60 A, 70–230, or 230–400 mesh ASTM; Merck, Germany) and reversed-phase silica gel (ODS-A, S-75 μm; YMC, Kyoto, Japan). […] Greiss reagent and lipopolysaccharide (LPS) were purchased from Sigma-Aldrich (St. Louis, MO, USA). Dulbecco’s modified Eagle medium (DMEM) and fetal bovine serum were purchased from Gibco (Grand Island, NY, USA). Penicillin/streptomycin antibiotics came from Invitrogen (Carlsbad, CA, USA).
Inhibitor efficiency (%) was calculated as shown in Equation (1):Inhibitory activity = 100 − [(I4_0 − I0)/(M40 − M0)] × 100(1) where I40 and M40 are the fluorescence of the candidate inhibitor (I) and methanol (M) after 40 min, and I0 and M0 are the fluorescence of I and M at 0 min, respectively.

sEH [5] = molecular target: T1, sEH; test: sEH enzyme kinetics (Lineweaver–Burk and Dixon plots); assay type: biochemical; conditions: for Ki: calculated from the Dixon plot; for Binding Mode: substrate 3.1–50 µM, Lineweaver–Burk plot
Procedure: Determinations of enzyme kinetics yield insights into the interactions between inhibitors and enzymes. In such studies, the changes in the initial velocity (v0) of the enzymatic reaction induced by the inhibitor depending on the substrate concentration are monitored. To investigate the effects of the five flavonoids (1–5) on sEH, a substrate concentration of 3.1–50 µM was used. […] The ki values calculated from the Dixon plot were 43.9, 19.8, 17.5, 63.5, and 68.7 µM, respectively (Figure 2G–K).
In 96-well plates, 20 µL of isolated compounds […] in methanol was mixed with 100 µL of 25 mM Tris–HCl (pH 7.0) buffer containing 0.1% BSA, followed by adding 30 µL of 1.0 µg/mL sEH and then 50 µL of 40 μM PHOME. The reaction product was measured using a fluorescent photometer (excitation filter: 330 nm, emission filter: 465 nm).

[6] = test system: NO production by poly(I:C)-induced RAW264.7 cells; test: Nitric oxide assay (Griess method); assay type: cell-based; conditions: for NO production: 10 µM compound, induced control 19.0 ± 1.5 µM, unstimulated ~0.91 µM; for inhibition at 10 µM: Mus musculus, RAW264.7, poly(I:C)-stimulated cells
Procedure: The activity of compounds 1–5 with respect to NO production by poly(I:C)-induced RAW264.7 cells was evaluated by measuring the amount of nitrite that accumulated in the culture medium using the Griess method. When tested at a concentration 10 µM, none of the compounds affected the viability of RAW264.7 cells. In unstimulated RAW264.7 cells, NO production was ~ 0.91 µM, whereas in poly(I:C)-induced cells, it was 19.0 ± 1.5 µM. In induced cells simultaneously treated with compounds 1–5 at a concentration of 10 µM, NO production was 12.5 ± 0.1, 9.6 ± 0.2, 4.0 ± 0.2, 7.0 ± 0.3, and 13.9 ± 0.8 µM, respectively (Figure 5).
RAW264.7 macrophages were initially cultured as described above and then pretreated for 2 h with 10 µM of the candidate inhibitor. Then, they were stimulated with 1 µg LPS /mL for 24 h. Then, 100 µL each of supernatant and Griess reagent were added to the plate. The absorbance at 450 nm was measured as described.

[7] = test system: LPS-activated THP-1 cells; parameters: method as in PMID 27177082; conditions: cited from earlier work
arthritic rats = test system: arthritic rats; parameters: method as in PMID 27177082; conditions: cited from earlier work

IC50 (sEH [4]) | Ki (sEH [5]) | Binding Mode (sEH [5]) | Structure (SMILES) | NO production [6] | other results
 |  |  | C=C(C)[C@@H](O)[C@@H](O)C[C@@H](C)C1=C2CC[C@H]3[C@@]4(C)CCC(=O)C(C)(C)[C@@H]4CC[C@]3(C)[C@@]2(C)CC1 [11-deoxy-25-anhydroalisol E] |  | sEH inhibition (in words) (sEH [1]): considerable inhibitory effects on sEH
 |  |  | O=C(O)CCCCCCCCCCCNC(=O)NC12CC3CC(CC(C3)C1)C2 [AUDA, 12-(3-adamantan-1-yl-ureido) dodecanoic acid] |  | blood pressure [2]: effective for lowering blood pressure; metabolism in vivo [3]: rapid metabolism in vivo
42.6 ± 0.8 µM | 43.9 µM | non-competitive | COc1ccc(-c2oc3cc(OC)c(OC)c(O)c3c(=O)c2O)cc1O [Compound 1, eupatin] | 12.5 ± 0.1 µM | Binding Mode (sEH [5]; listed as eupatin): noncompetitive
12.1 ± 0.1 µM | 17.5 µM | non-competitive | COc1c(O)cc2oc(-c3ccc(O)c(O)c3)c(O)c(=O)c2c1O [Compound 3, patuletin] | 4.0 ± 0.2 µM | Binding Mode (sEH [5]; listed as patuletin): noncompetitive; inhibition at 10 µM [6]: > 50%; TNF-α and IL-1β levels [7]: decrease TNF-α and IL-1β levels; TNF-α and IL-1β levels (arthritic rats): decrease TNF-α and IL-1β levels
40.9 ± 0.6 µM | 63.5 µM | non-competitive | COc1c(O)cc2oc(-c3ccc(O)c(O)c3)cc(=O)c2c1O [Compound 4, nepetin] | 7.0 ± 0.3 µM | Binding Mode (sEH [5]; listed as nepetin): noncompetitive; inhibition at 10 µM [6]: > 50%
62.8 ± 1.8 µM | 68.7 µM | non-competitive | COc1cc(-c2oc3cc(O)cc(O)c3c(=O)c2OC2OC(CO)C(O)C(O)C2O)ccc1O (stereo not shown) [Compound 5, isorhametin-3-O-glucoside] | 13.9 ± 0.8 µM | Binding Mode (sEH [5]; listed as isorhametin-3-O-glucoside): noncompetitive
 |  |  | COc1cc(-c2cc(=O)c3c(O)cc(O)cc3o2)ccc1O [chrysoeriol] |  | inhibition mode (sEH [1]): non-competitive
 |  |  | COc1cc(-c2oc3cc(O[C@@H]4O[C@H](CO)[C@@H](O)[C@H](O)[C@H]4O)cc(O)c3c(=O)c2O)ccc1O [isorhamnetin-7-O-glucopyranoside] |  | inhibition mode (sEH [1]): non-competitive
 |  |  | O=c1c(O)c(-c2ccc(O)cc2)oc2cc(O)cc(O)c12 [kaempferol] |  | sEH inhibition (in words) (sEH [1]): potent sEH inhibitors
 |  |  | O=c1cc(-c2ccc(O)c(O)c2)oc2cc(O[C@@H]3O[C@H](CO)[C@@H](O)[C@H](O)[C@H]3O)cc(O)c12 [luteolin-7-O-glucopyranoside] |  | inhibition mode (sEH [1]): non-competitive
 |  |  | O=c1c(O)c(-c2ccc(O)c(O)c2)oc2cc(O)cc(O)c12 [quercetin] |  | sEH inhibition (in words) (sEH [1]): potent sEH inhibitors

Structure (SMILES) | IC50 (sEH [4]) | Ki (sEH [5]) | Binding Mode (sEH [5]) | NO production [6] | other results
COc1c(O)cc2oc(-c3ccc(O)cc3)cc(=O)c2c1O [Compound 2, hispidulin] | 22.2 ± 0.3 µM | 19.8 µM | non-competitive | 9.6 ± 0.2 µM | Binding Mode (sEH [5]; listed as hispidulin): noncompetitive
